Results as given in patent publication US11957769B2, “Polyhydroxy fullerene sunscreen active agents and compositions” (THE CLEVELAND CLINIC FOUNDATION, priority 2016, dated 2024).

Key:
[1] = cited from earlier work
hairless SKH-1 mice = assay: UV damage in skin of hairless SKH-1 mice after topical PHF
Procedure: PHF (obtained from MER Corp.) was dissolved in water and applied on the right flank (2 cm×1 cm) of the dorsal region of hairless SKH-1 mice. The left flank (2 cm×1 cm) of the same mouse was used as a control with topical application of deionized water. The topical applications were allowed to dry for 15 minutes followed by UV exposure (80 mJ/cm^2; 90% UVB and 10% UVA). […] Mice were euthanized 48 hours post-UV exposure, and the skin was harvested for histological analysis or immunofluorescent staining.

skin sections = assay: Blinded scoring of erythema and edema of UVB-exposed skin sections in a preclinical model; assay type: in vivo; conditions: UVB 120 mJ/cm^2, 48 hours, blinded panel
Procedure: PHF is a single, multifunctional active that replaces multiple actives of current sunscreen formulations. […] The concentration of PHF was optimized and the minimum concentration of PHF that prevents symptoms of sunburn (erythema and edema) was determined. In a preclinical model, different skin sections were applied with PHF formulation, SPF60 commercial sunscreen, vehicle (without PHF) samples and control (no application). All skin sections were exposed to UVB at 120 mJ/cm^2 dose. The skin sections were monitored for erythema (redness) and edema (swelling) at 24, 48 and 72 hours. Maximum erythema is usually observed at 48 hours. The photographs of skin sections at 48 hours were scored by a panel consisting of two dermatologists and two non-dermatologists. The panel was blinded to the identity of the samples. The result of blinded scoring study is plotted in FIG. 5. […] [table]

Nrf2 pathway = conditions: Ye et al. 2014; cited from earlier work
[2] = Photolability, comparison of sunscreen actives (Table 1); assay type: physicochemical; conditions: Table 1 comparison of actives
[3] = UV-Visible absorbance spectra of PHF solution vs commercial SPF60 sunscreen; assay type: physicochemical; conditions: PHF solution 0.5 mg/mL in 25% glycerol
Procedure: The inventors discovered that PHF absorbs UV more effectively than commercial sunscreens. For initial comparisons (FIG. 2), the UV-Vis absorption of PHF solution at 0.5 mg/mL (prepared in 25% glycerol) was compared with Neutrogena SPF 60 (4.9% Titanium dioxide and 4.7% Zinc oxide) sunscreen at 5 mg/mL (in de-ionized water). The total concentration of AI in the commercial sunscreen suspension was equal to that of PHF (0.5 mg/mL) solution. PHF is a broad spectrum UV absorber, as its critical wavelength of 381 nm and UVA/UVB ratio of 1.6 exceeds the FDA limit of 370 nm and 0.91, respectively. The absorbance of PHF is 2.5-1.9 times higher in the UVB region (280-320 nm) and 1.9-1.5 times higher in the UVA region (320-400 nm) than SPF60 sunscreen. This high UV absorptive ability of PHF (for preventing direct damage from UVB and UVA) becomes even more important when combined with other potential advantages of PHF (preventing indirect free radical mediated damage) over current sunscreen AIs, as summarized in Table 1 and FIG. 3.

[4] = cited from earlier work; remark: listed apart in the source
[5] = 48 hours post-UV exposure, vs water control flank

polyhydroxy fullerene [PHF]
free radical generation on UV absorption ([1]; Krishna et al. 2008): without generating free radicals
Potential ROS generation ([1]; Table 1 comparison of actives): None
erythema (sunburn) (hairless SKH-1 mice; 24 hours after UV exposure (80 mJ/cm^2; 90% UVB and 10% UVA), topical PHF in water vs water control flank): did not show any signs of erythema
DNA photoproducts (cyclopyrimidine dimers, CPD) (hairless SKH-1 mice; [5]): fewer DNA photoproducts
epidermal cell death (dyskeratotic sunburn cells), histology (hairless SKH-1 mice; [5]): marked reduction in epidermal cell death
recovery of proliferation (Ki-67) (hairless SKH-1 mice; [5]): faster recovery of proliferation
erythema and edema score vs commercial SPF60 sunscreen (skin sections): on par with commercial SPF60 sunscreen
erythema and edema score vs control and vehicle only (skin sections; α=0.01): reduced erythema and edema significantly
Nrf2 pathway activation (Nrf2 pathway): activates the Nrf2 pathway
Photolabile [2]: No
UVA/UVB ratio ([3]; FDA limit 0.91): 1.6
critical wavelength ([3]; FDA limit 370 nm): 381 nm
ROS susceptibility ([4]; Table 1 comparison of actives): Catalytically
neutralization of free radicals ([4]; superoxide, nitric oxide, etc., Yin et al. 2009): can catalytically neutralize different types of free radicals
